Measured values as given in the supplement of paper PMC11414989.

Key:
Details in all cases: exposure window: 6 hpf to 120 hpf, static, assay age: 120 hpf (5 dpf)
[1] = system: Danio rerio larvae (Tropical 5D); assay: mean distance moved of exposed larvae, dark phase (µm per frame (1/25 s)); higher = more movement
Description: (§1)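 Larval photomotor response in Tropical 5D wild-type zebrafish. Larvae were statically exposed to each chemical from 6 hpf to 5 dpf in 96-well plates; morphologically abnormal larvae were excluded. At 120 hpf, larvae were tracked with Ethovision XT (25 frames/s) over the 2nd cycle of 3 min light and 3 min dark. Values are the mean movement metric of exposed larvae per phase; same-plate control means (plate-dependent baseline) are given as conditions.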

[2] = system: Danio rerio larvae (Tropical 5D); assay: mean distance moved of exposed larvae, light phase (µm per frame (1/25 s)); higher = more movement
Description: as §1

[3] = system: Danio rerio larvae (Tropical 5D); assay: mean angular velocity of exposed larvae, dark phase (angular velocity (unit not stated)); higher = more movement
Description: as §1

[4] = system: Danio rerio larvae (Tropical 5D); assay: mean angular velocity of exposed larvae, light phase (angular velocity (unit not stated)); higher = more movement
Description: as §1

SMILES: O=C(O)C(F)(F)C(F)(F)C(F)(F)C(F)(F)C(F)(F)C(F)(F)C(F)(F)C(F)(F)C(F)(F)C(F)(F)C(F)(F)C(F)(F)C(F)(F)C(F)(F)C(F)(F)C(F)(F)C(F)(F)F [Perfluoro-n-octadecanoic acid]
- mean distance moved of exposed larvae ([1]; 0.25 µM): 10.3
- mean distance moved of exposed larvae ([2]; 0.25 µM): 3.51
- mean angular velocity of exposed larvae ([3]; 0.25 µM): 0.571
- mean angular velocity of exposed larvae ([4]; 0.25 µM): 0.146

SMILES: O=P(O)(O)C(F)(F)C(F)(F)C(F)(F)C(F)(F)C(F)(F)C(F)(F)C(F)(F)C(F)(F)C(F)(F)C(F)(F)F [Perfluorodecylphosphonic acid]
- mean distance moved of exposed larvae ([1]; 0.25 µM): 9.21
- mean distance moved of exposed larvae ([2]; 0.25 µM): 1.45
- mean angular velocity of exposed larvae ([3]; 0.25 µM): 0.34
- mean angular velocity of exposed larvae ([4]; 0.25 µM): 0.0471

SMILES: O=S(=O)(O)C(F)(F)C(F)(F)C(F)(F)C(F)(F)C(F)(F)C(F)(F)F [Perfluorohexanesulfonic acid]
- mean distance moved of exposed larvae ([1]; 0.015 µM): 11.6
- mean distance moved of exposed larvae ([1]; 0.046 µM): 20.4
- mean distance moved of exposed larvae ([1]; 0.14 µM): 13.8
- mean distance moved of exposed larvae ([1]; 0.41 µM): 17.2
- mean distance moved of exposed larvae ([1]; 1.23 µM): 23
- mean distance moved of exposed larvae ([1]; 3.7 µM): 22.9
- mean distance moved of exposed larvae ([1]; 11.1 µM): 25.2
- mean distance moved of exposed larvae ([1]; 33.3 µM): 8.39
- mean distance moved of exposed larvae ([1]; 66.5 µM): 3.78
- mean distance moved of exposed larvae ([1]; 100 µM): 3.15
- mean distance moved of exposed larvae ([2]; 0.015 µM): 2.17
- mean distance moved of exposed larvae ([2]; 0.046 µM): 2.46
- mean distance moved of exposed larvae ([2]; 0.14 µM): 1.98
- mean distance moved of exposed larvae ([2]; 0.41 µM): 2.2
- mean distance moved of exposed larvae ([2]; 1.23 µM): 3.86
- mean distance moved of exposed larvae ([2]; 3.7 µM): 3.31
- mean distance moved of exposed larvae ([2]; 11.1 µM): 4.59
- mean distance moved of exposed larvae ([2]; 33.3 µM): 8.09
- mean distance moved of exposed larvae ([2]; 66.5 µM): 3.27
- mean distance moved of exposed larvae ([2]; 100 µM): 3.18
- mean angular velocity of exposed larvae ([3]; 0.015 µM): 0.475
- mean angular velocity of exposed larvae ([3]; 0.046 µM): 0.762
- mean angular velocity of exposed larvae ([3]; 0.14 µM): 0.609
- mean angular velocity of exposed larvae ([3]; 0.41 µM): 0.788
- mean angular velocity of exposed larvae ([3]; 1.23 µM): 0.884
- mean angular velocity of exposed larvae ([3]; 3.7 µM): 0.738
- mean angular velocity of exposed larvae ([3]; 11.1 µM): 0.954
- mean angular velocity of exposed larvae ([3]; 33.3 µM): 0.358
- mean angular velocity of exposed larvae ([3]; 66.5 µM): 0.271
- mean angular velocity of exposed larvae ([3]; 100 µM): 0.173
- mean angular velocity of exposed larvae ([4]; 0.015 µM): 0.178
- mean angular velocity of exposed larvae ([4]; 0.046 µM): 0.0902
- mean angular velocity of exposed larvae ([4]; 0.14 µM): 0.121
- mean angular velocity of exposed larvae ([4]; 0.41 µM): 0.123
- mean angular velocity of exposed larvae ([4]; 1.23 µM): 0.25
- mean angular velocity of exposed larvae ([4]; 3.7 µM): 0.171
- mean angular velocity of exposed larvae ([4]; 11.1 µM): 0.153
- mean angular velocity of exposed larvae ([4]; 33.3 µM): 0.351
- mean angular velocity of exposed larvae ([4]; 66.5 µM): 0.241
- mean angular velocity of exposed larvae ([4]; 100 µM): 0.114

SMILES: O=P(O)(O)C(F)(F)C(F)(F)C(F)(F)C(F)(F)C(F)(F)C(F)(F)F [Perfluorohexylphosphonic acid]
- mean distance moved of exposed larvae ([1]; 0.25 µM): 24.1
- mean distance moved of exposed larvae ([2]; 0.25 µM): 5.18
- mean angular velocity of exposed larvae ([3]; 0.25 µM): 0.788
- mean angular velocity of exposed larvae ([4]; 0.25 µM): 0.148

SMILES: O=P(O)(O)C(F)(F)C(F)(F)C(F)(F)C(F)(F)C(F)(F)C(F)(F)C(F)(F)C(F)(F)F [Perfluorooctylphosphonic acid]
- mean distance moved of exposed larvae ([1]; 0.25 µM): 29.9
- mean distance moved of exposed larvae ([2]; 0.25 µM): 10.3
- mean angular velocity of exposed larvae ([3]; 0.25 µM): 0.959
- mean angular velocity of exposed larvae ([4]; 0.25 µM): 0.308

SMILES: O=S(=O)(O)C(F)(F)C(F)(F)C(F)(F)C(F)(F)F [Potassium perfluoro-1-butanesulfonate]
- mean distance moved of exposed larvae ([1]; 0.25 µM): 30.9
- mean distance moved of exposed larvae ([2]; 0.25 µM): 1.73
- mean angular velocity of exposed larvae ([3]; 0.25 µM): 1.11
- mean angular velocity of exposed larvae ([4]; 0.25 µM): 0.0624

SMILES: O=S(=O)(O)CCC(F)(F)C(F)(F)C(F)(F)C(F)(F)F [Sodium 1H,1H,2H,2H-perfluorohexane sulfonate(4:2)]
- mean distance moved of exposed larvae ([1]; 0.25 µM): 44.7
- mean distance moved of exposed larvae ([2]; 0.25 µM): 4.72
- mean angular velocity of exposed larvae ([3]; 0.25 µM): 1.24
- mean angular velocity of exposed larvae ([4]; 0.25 µM): 0.152

SMILES: O=S(=O)(O)C(F)(F)C(F)(F)C(F)(F)C(F)(F)C(F)(F)C(F)(F)C(F)(F)C(F)(F)Cl [Sodium 8-chloroperfluoro-1-octanesulfonate]
- mean distance moved of exposed larvae ([1]; 0.25 µM): 28.8
- mean distance moved of exposed larvae ([2]; 0.25 µM): 2.63
- mean angular velocity of exposed larvae ([3]; 0.25 µM): 0.945
- mean angular velocity of exposed larvae ([4]; 0.25 µM): 0.0987

SMILES: O=S(=O)(O)C(F)(F)C(F)(F)C(F)(F)C(F)(F)C(F)(F)F [Sodium Perfluoro-1-pentanesulfonate]
- mean distance moved of exposed larvae ([1]; 0.25 µM): 34.7
- mean distance moved of exposed larvae ([2]; 0.25 µM): 5.23
- mean angular velocity of exposed larvae ([3]; 0.25 µM): 1.28
- mean angular velocity of exposed larvae ([4]; 0.25 µM): 0.235

SMILES: O=P(O)(C(F)(F)C(F)(F)C(F)(F)C(F)(F)C(F)(F)C(F)(F)F)C(F)(F)C(F)(F)C(F)(F)C(F)(F)C(F)(F)C(F)(F)F [Sodium bis(perfluorohexyl)phosphinate]
- mean distance moved of exposed larvae ([1]; 0.25 µM): 14.2
- mean distance moved of exposed larvae ([2]; 0.25 µM): 1.35
- mean angular velocity of exposed larvae ([3]; 0.25 µM): 0.687
- mean angular velocity of exposed larvae ([4]; 0.25 µM): 0.163

SMILES: O=P(O)(C(F)(F)C(F)(F)C(F)(F)C(F)(F)C(F)(F)C(F)(F)C(F)(F)C(F)(F)F)C(F)(F)C(F)(F)C(F)(F)C(F)(F)C(F)(F)C(F)(F)C(F)(F)C(F)(F)F [Sodium bis(perfluorooctyl)phosphinate]
- mean distance moved of exposed larvae ([1]; 0.25 µM): 15.1
- mean distance moved of exposed larvae ([2]; 0.25 µM): 2.89
- mean angular velocity of exposed larvae ([3]; 0.25 µM): 0.704
- mean angular velocity of exposed larvae ([4]; 0.25 µM): 0.119

SMILES: O=S(=O)(O)C(F)(F)C(F)(F)C(F)(F)C(F)(F)C(F)(F)C(F)(F)C(F)(F)C(F)(F)C(F)(F)C(F)(F)F [Sodium perfluoro-1-decanesulfonate]
- mean distance moved of exposed larvae ([1]; 0.25 µM): 24.8
- mean distance moved of exposed larvae ([2]; 0.25 µM): 6.8
- mean angular velocity of exposed larvae ([3]; 0.25 µM): 0.897
- mean angular velocity of exposed larvae ([4]; 0.25 µM): 0.372
